# Literature values, collected in patent US11801275B2, “Compositions and methods for common colds” (M. ALPHABET 3, LLC, priority 2017, dated 2023).
# Read-outs that look alike come from different tables or passages of the source.
# Experiments:
# [1] = system: upper respiratory tract infections
Compound,"mean level of 25-hydroxy vitamin D ([1]; after oral vitamin D3 200,000 IU then 100,000 IU, increased from 29 (SD, 9) ng/mL, maintained throughout the study)","difference versus placebo in upper respiratory tract infections, days of missed work, duration and severity of symptoms ([1]; irrespective of season)","pooled risk ratio (RR) of developing a cold whilst taking vitamin C regularly (common cold; five trials, 598 marathon runners, skiers and soldiers on subarctic exercises, 95% CI 0.35 to 0.64)","pooled risk ratio (RR) of developing a cold whilst taking vitamin C regularly (common cold; general community trials, 10,708 participants, 95% CI 0.94 to 1.00)",effect on the duration or severity of colds (common cold; therapeutic trials)
C=C1CC[C@H](O)C/C1=C/C=C1\CCC[C@]2(C)[C@@H]([C@H](C)CCCC(C)C)CC[C@@H]12 [vitamin D3],greater than 48 ng/mL,no statistically significant difference,–,–,–
"O=C1O[C@H]([C@@H](O)CO)C(O)=C1O [vitamin C, ascorbic acid]",–,–,0.48,0.97,no consistent effect
